The assay concerns the target T1, human μ-opiate receptor (Homo sapiens, UniProt P35372).
T1 construct: purchased PerkinElmer Life Sciences, Zaventem, Belgium RB-HOM; host or cells: CHO-K1 cells (recombinant expression; membrane preparation)
Briefly: Affinity for the human μ-opiate receptor ([3H]-naloxone displacement, SPA). Conditions: Table 2, Examples 11-161; test substance 1 μmole/l; inhibition of specific [3H]-naloxone binding; CHO-K1 membranes; read-out: μ-Opioid receptor, % inhibition [1 μM]. Summed up:
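CHO-K1 membranes expressing the receptor, incubated 90 min at room temperature with 1 nmol/l [3H]-naloxone and WGA-SPA beads in 50 mmol/l Tris-HCl with 0.06% BSA. Non-specific binding defined with 100 μmol/l naloxone. Value is % inhibition of specific binding at 1 μmol/l test substance.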

T1 sequence (P35372 whole entry): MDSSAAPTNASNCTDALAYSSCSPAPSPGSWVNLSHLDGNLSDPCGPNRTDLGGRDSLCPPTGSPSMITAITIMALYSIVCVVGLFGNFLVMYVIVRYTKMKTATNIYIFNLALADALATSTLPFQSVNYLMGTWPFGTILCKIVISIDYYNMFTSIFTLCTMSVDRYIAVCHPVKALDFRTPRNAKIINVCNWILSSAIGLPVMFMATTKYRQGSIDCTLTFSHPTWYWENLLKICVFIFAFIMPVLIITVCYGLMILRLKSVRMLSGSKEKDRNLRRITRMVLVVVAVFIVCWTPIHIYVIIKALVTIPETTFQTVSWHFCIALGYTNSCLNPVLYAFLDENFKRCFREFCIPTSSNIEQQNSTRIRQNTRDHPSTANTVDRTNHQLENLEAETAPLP

On to `COC(=O)C1(Cc2ccc(Cl)cc2)N=CN(Cc2ccccc2)C1CC1CCC(C(c2ccc(Cl)cc2)N(C)C)CC1` (centres unmarked) [Example 113, 1-benzyl-4-(4-chlorobenzyl)-5-{4-[(4-chlorophenyl)-dimethylaminomethyl]-cyclohexylmethyl}-4,5-dihydro-1H-imidazole-4-carboxylic acid methyl ester], for which the inhibition at 1 µM turned out to be 92%. Turning to `COC(=O)C1(CSCc2ccccc2)N=CN(CCc2ccccc2)C1C1CCC(C(c2ccc(Cl)cc2)N(C)C)CC1` (centres unmarked) [Example 93, 4-benzylsulfanylmethyl-5-{4-[(4-chlorophenyl)-dimethylaminomethyl]-cyclohexyl}-1-phenethyl-4,5-dihydro-1H-imidazole-4-carboxylic acid methyl ester], the inhibition at 1 µM was found to be 92%. The result for `CCCCC1(C(=O)OC)N=CN(C2CCCCC2)C1C1CCC(C(c2cccc(F)c2)N(C)C)CC1` (centres unmarked) [Example 13, 4-butyl-1-cyclohexyl-5-{4-[dimethylamino-(3-fluorophenyl)-methyl]-cyclohexyl}-4,5-dihydro-1H-imidazole-4-carboxylic acid methyl ester] reads 94%; that for `CCCN1C=NC(CC(C)C)(C(=O)OC)C1C1CCC(C(c2ccc(Cl)cc2)N(C)C)CC1` (centres unmarked) [Example 24, 5-{4-[(4-chlorophenyl)-dimethylaminomethyl]-cyclohexyl}-4-isobutyl-1-propyl-4,5-dihydro-1H-imidazole-4-carboxylic acid methyl ester], 89%; that for `CCC(C)C1(C(=O)OC)N=CN(C2CCCCC2)C1CC1CCC(C(c2ccc(Cl)cc2)N(C)C)CC1` (centres unmarked) [Example 54, Methyl-4-sec-butyl-5-((4-((4-chlorophenyl)(dimethylamino)methyl)cyclohexyl)methyl)-1-cyclohexyl-4,5-dihydro-1H-imidazole-4-carboxylate], 100%.

Turning to `CCCC1(C(=O)OC)N=CN(Cc2ccccc2)C1CC1CCC(C(CCc2ccccc2)N(C)C)CC1` (centres unmarked) [Example 144, 1-benzyl-5-[4-(1-dimethylamino-3-phenylpropyl)-cyclohexylmethyl]-4-propyl-4,5-dihydro-1H-imidazole-4-carboxylic acid methyl ester], the inhibition at 1 µM came out at 90%. In the case of `COC(=O)C1(CSCc2ccccc2)N=CN(C2CCCCC2)C1CC1CCC(C(c2ccc(Cl)cc2)N(C)C)CC1` (centres unmarked) [Example 56, 4-benzylsulfanylmethyl-5-{4-[(4-chlorophenyl)-dimethylaminomethyl]-cyclohexylmethyl}-1-cyclohexyl-4,5-dihydro-1H-imidazole-4-carboxylic acid methyl ester] it was 97%; in that of `COC(=O)C1(CCSC)N=CN(C2CCCCC2)C1CC1CCC(C(CCc2ccccc2)N(C)C)CC1` (centres unmarked) [Example 109, 1-cyclohexyl-5-[4-(1-dimethylamino-3-phenylpropyl)-cyclohexylmethyl]-4-(2-methylsulfanyl-ethyl)-4,5-dihydro-1H-imidazole-4-carboxylic acid methyl ester], 87%. In the case of `CCCCN1C=NC(CCCC)(C(=O)OC)C1C1CCC(C(c2ccc(Cl)cc2)N(C)C)CC1` (centres unmarked) [Example 33, 1,4-dibutyl-5-{4-[(4-chlorophenyl)-dimethylaminomethyl]-cyclohexyl}-4,5-dihydro-1H-imidazole-4-carboxylic acid methyl ester] it was 85%. The result for `COC(=O)C1(CSCc2ccccc2)N=CN(Cc2ccccc2)C1C1CCC(C(c2cccc(F)c2)N(C)C)CC1` (centres unmarked) [Example 97, 1-benzyl-4-benzylsulfanylmethyl-5-{4-[dimethylamino-(3-fluorophenyl)-methyl]-cyclohexyl}-4,5-dihydro-1H-imidazole-4-carboxylic acid methyl ester] reads 97%.

For the compound `COC(=O)CCC1(C(=O)OC)N=CN(Cc2ccccc2)C1CC1CCC(C(c2cccc(F)c2)N(C)C)CC1` (centres unmarked) [Example 85, 1-benzyl-5-{4-[dimethylamino-(3-fluorophenyl)-methyl]-cyclohexylmethyl}-4-(2-methoxycarbonylethyl)-4,5-dihydro-1H-imidazole-4-carboxylic acid methyl ester], the inhibition at 1 µM is 95%. The result for `COC(=O)C1(C)N=CN(C2CCCCC2)C1CC1CCC(C(c2cccc(F)c2)N(C)C)CC1` (centres unmarked) [Example 104, 1-cyclohexyl-5-{4-[dimethylamino-(3-fluorophenyl)-methyl]-cyclohexylmethyl}-4-methyl-4,5-dihydro-1H-imidazole-4-carboxylic acid methyl ester] reads 93%; that for `COC(=O)CCC1(C(=O)OC)N=CN(CCc2ccccc2)C1CC1CCC(C(c2ccc(F)cc2)N(C)C)CC1` (centres unmarked) [Example 83, 5-{4-[dimethylamino-(4-fluorophenyl)-methyl]-cyclohexylmethyl}-4-(2-methoxycarbonylethyl)-1-phenethyl-4,5-dihydro-1H-imidazole-4-carboxylic acid methyl ester], 77%; that for `CCCN1C=NC(CCSC)(C(=O)OC)C1CC1CCC(C(c2ccc(F)cc2)N(C)C)CC1` (centres unmarked) [Example 119, 5-{4-[dimethylamino-(4-fluorophenyl)-methyl]-cyclohexylmethyl}-4-(2-methylsulfanylethyl)-1-propyl-4,5-dihydro-1H-imidazole-4-carboxylic acid methyl ester], 90%. The result for `COC(=O)C1(CSCc2ccccc2)N=CN(CCc2ccccc2)C1CC1CCC(C(c2cccc(F)c2)N(C)C)CC1` (centres unmarked) [Example 82, 4-benzylsulfanylmethyl-5-{4-[dimethylamino-(3-fluorophenyl)-methyl]-cyclohexylmethyl}-1-phenethyl-4,5-dihydro-1H-imidazole-4-carboxylic acid methyl ester] reads 95%; that for `COC(=O)CCC1(C(=O)OC)N=CN(C2CCCCC2)C1CC1CCC(C(c2ccc(Cl)cc2)N(C)C)CC1` (centres unmarked) [Example 53, 5-{4-[(4-chlorophenyl)-dimethylaminomethyl]-cyclohexylmethyl}-1-cyclohexyl-4-(2-methoxycarbonylethyl)-4,5-dihydro-1H-imidazole-4-carboxylic acid methyl ester], 96%. The result for `CCC(C)C1(C(=O)OC)N=CN(CCc2ccccc2)C1CC1CCC(C(c2cccc(F)c2)N(C)C)CC1` (centres unmarked) [Example 81, 4-sec-butyl-5-{4-[dimethylamino-(3-fluorophenyl)-methyl]-cyclohexylmethyl}-1-phenethyl-4,5-dihydro-1H-imidazole-4-carboxylic acid methyl ester] reads 76%; that for `CCCN1C=NC(CC(C)C)(C(=O)OC)C1C1CCC(C(c2cccc(F)c2)N(C)C)CC1` (centres unmarked) [Example 21, 5-{4-[dimethylamino-(3-fluorophenyl)-methyl]-cyclohexyl}-4-isobutyl-1-propyl-4,5-dihydro-1H-imidazole-4-carboxylic acid methyl ester], 83%.

As to `COC(=O)C1(CC(C)C)N=CN(Cc2ccccc2)C1CC1CCC(C(c2ccc(Cl)cc2)N(C)C)CC1` (centres unmarked) [Example 50, 1-benzyl-5-{4-[(4-chlorophenyl)-dimethylaminomethyl]-cyclohexylmethyl}-4-isobutyl-4,5-dihydro-1H-imidazole-4-carboxylic acid methyl ester], the inhibition at 1 µM stood at 94%.

On to `CCCCN1C=NC(CCC(=O)OC)(C(=O)OC)C1C1CCC(C(c2cccc(F)c2)N(C)C)CC1` (centres unmarked) [Example 65, 1-butyl-5-{4-[dimethylamino-(3-fluorophenyl)-methyl]-cyclohexyl}-4-(2-methoxycarbonylethyl)-4,5-dihydro-1H-imidazole-4-carboxylic acid methyl ester], for which the inhibition at 1 µM amounted to 78%. Take `CCCCN1C=NC(CSCc2ccccc2)(C(=O)OC)C1CC1CCC(C(c2ccc(Cl)cc2)N(C)C)CC1` (centres unmarked) [Example 90, 4-benzylsulfanylmethyl-1-butyl-5-{4-[(4-chlorophenyl)-dimethylaminomethyl]-cyclohexylmethyl}-4,5-dihydro-1H-imidazole-4-carboxylic acid methyl ester]: the inhibition at 1 µM is 99%. Consider `CCCN1C=NC(CCSC)(C(=O)OC)C1CC1CCC(C(CCc2ccccc2)N(C)C)CC1` (centres unmarked) [Example 121, 5-[4-(1-dimethylamino-3-phenylpropyl)-cyclohexylmethyl]-4-(2-methylsulfanylethyl)-1-propyl-4,5-dihydro-1H-imidazole-4-carboxylic acid methyl ester], for which the inhibition at 1 µM is 77%. The result for `COC(=O)CCC1(C(=O)OC)N=CN(CCc2ccccc2)C1CC1CCC(C(c2cccc(F)c2)N(C)C)CC1` (centres unmarked) [Example 80, 5-{4-[dimethylamino-(3-fluorophenyl)-methyl]-cyclohexylmethyl}-4-(2-methoxycarbonylethyl)-1-phenethyl-4,5-dihydro-1H-imidazole-4-carboxylic acid methyl ester] reads 90%. The result for `CCCCN1C=NC(CSCc2ccccc2)(C(=O)OC)C1C1CCC(C(c2cccc(F)c2)N(C)C)CC1` (centres unmarked) [Example 67, 4-benzylsulfanylmethyl-1-butyl-5-{4-[dimethylamino-(3-fluorophenyl)-methyl]-cyclohexyl}-4,5-dihydro-1H-imidazole-4-carboxylic acid methyl ester] reads 88%; that for `CCCCN1C=NC(Cc2ccc(Cl)cc2)(C(=O)OC)C1C1CCC(C(c2cccc(F)c2)N(C)C)CC1` (centres unmarked) [Example 30, 1-butyl-4-(4-chlorobenzyl)-5-{4-[dimethylamino-(3-fluorophenyl)-methyl]-cyclohexyl}-4,5-dihydro-1H-imidazole-4-carboxylic acid methyl ester], 89%; that for `CCCN1C=NC(C(=O)OC)(C(C)CC)C1CC1CCC(C(c2ccc(Cl)cc2)N(C)C)CC1` (centres unmarked) [Example 62, 4-sec-butyl-5-{4-[(4-chlorophenyl)-dimethylaminomethyl]-cyclohexylmethyl}-1-propyl-4,5-dihydro-1H-imidazole-4-carboxylic acid methyl ester], 98%.

The values above are taken from US7728028B2, “Substituted imidazoline compounds” (Gruenenthal GmbH, priority 2005, dated 2010).
